Target: Botulinum neurotoxin type A (Clostridium botulinum, UniProt P0DPI0)
Format: cell-based

Sequence of Botulinum neurotoxin type A (P0DPI0 whole entry, looked up): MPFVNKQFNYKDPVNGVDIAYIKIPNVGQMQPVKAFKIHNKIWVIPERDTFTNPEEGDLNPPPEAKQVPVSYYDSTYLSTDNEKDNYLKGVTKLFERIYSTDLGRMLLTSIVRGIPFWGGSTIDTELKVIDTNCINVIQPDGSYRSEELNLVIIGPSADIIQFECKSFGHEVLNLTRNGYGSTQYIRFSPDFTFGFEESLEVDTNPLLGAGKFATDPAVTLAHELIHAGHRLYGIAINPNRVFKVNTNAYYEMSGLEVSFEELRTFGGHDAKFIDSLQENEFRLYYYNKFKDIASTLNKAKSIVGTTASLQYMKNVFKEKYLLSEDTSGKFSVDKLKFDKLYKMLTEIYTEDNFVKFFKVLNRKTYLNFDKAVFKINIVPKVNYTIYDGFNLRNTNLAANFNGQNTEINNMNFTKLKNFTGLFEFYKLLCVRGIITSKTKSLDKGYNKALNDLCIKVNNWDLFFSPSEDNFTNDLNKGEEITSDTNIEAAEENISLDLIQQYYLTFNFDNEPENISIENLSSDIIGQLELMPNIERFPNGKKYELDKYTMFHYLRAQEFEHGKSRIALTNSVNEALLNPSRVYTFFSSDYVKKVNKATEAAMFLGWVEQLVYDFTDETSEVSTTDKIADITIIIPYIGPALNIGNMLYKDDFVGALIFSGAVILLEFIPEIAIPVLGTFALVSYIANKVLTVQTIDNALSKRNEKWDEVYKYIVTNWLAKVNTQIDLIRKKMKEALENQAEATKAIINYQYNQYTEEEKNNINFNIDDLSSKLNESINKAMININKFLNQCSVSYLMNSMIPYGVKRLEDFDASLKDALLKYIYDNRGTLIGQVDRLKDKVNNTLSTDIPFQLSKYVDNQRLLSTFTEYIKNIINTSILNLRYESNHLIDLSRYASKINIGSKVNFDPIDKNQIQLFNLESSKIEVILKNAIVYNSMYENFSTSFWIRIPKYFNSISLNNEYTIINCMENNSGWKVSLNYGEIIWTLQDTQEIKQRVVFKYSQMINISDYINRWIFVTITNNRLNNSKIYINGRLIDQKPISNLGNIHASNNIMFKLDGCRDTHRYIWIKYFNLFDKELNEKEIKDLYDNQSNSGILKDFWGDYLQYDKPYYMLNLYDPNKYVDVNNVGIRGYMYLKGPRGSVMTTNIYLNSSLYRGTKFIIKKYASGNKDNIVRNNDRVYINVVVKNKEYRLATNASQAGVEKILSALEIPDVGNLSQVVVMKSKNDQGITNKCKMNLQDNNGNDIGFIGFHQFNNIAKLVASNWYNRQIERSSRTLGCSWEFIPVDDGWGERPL

Molecule	neurotoxin-neutralizing activity (neuromuscular contractility, FIG. 2)
kaempferol-3-(O-glc-rha)-4′-O-rha [second component]	high toxin-neutralizing activities
kaempferol-3-O-glc-(6-1)-rha-(3-1)-glc [third component]	high toxin-neutralizing activities
C[C@@H]1O[C@@H](OC[C@H]2O[C@@H](Oc3c(-c4ccc(O)c(O)c4)oc4cc(O)cc(O)c4c3=O)[C@H](O)[C@@H](O)[C@@H]2O)[C@H](O)[C@H](O)[C@H]1O [first component, rutin]	high toxin-neutralizing activities
C[C@@H]1O[C@@H](OC[C@H]2O[C@@H](Oc3c(-c4ccc(O)cc4)oc4cc(O)cc(O)c4c3=O)[C@H](O)[C@@H](O)[C@@H]2O)[C@H](O)[C@H](O)[C@H]1O [fourth component, nicotiflorin]	high toxin-neutralizing activities

Source: US20040102387A1 (priority 2002, published 2004)
